Data on twelve compounds can be found in patent US20230365585A1, “BENZODIAZEPINE DERIVATIVES USEFUL IN TREATING A RESPIRATORY SYNCYTIAL VIRUS INFECTION” (priority 2020, published 2023).

pEC50: −log10 of the molar value.

Data set [1] in a line: Liver microsomal stability (rat). The following applies: 1 µM compound; for half-life at 1 µM: pooled liver microsomes, pH 7.4, 0.5 mg/mL protein, read-out: Liver Microsomal Stability t½. Format: in vitro ADME. Here is the method: (§1) Compounds were subjected to the following assays to investigate liver microsomal stability.
(§2) Pooled liver microsomes were purchased from a reputable commercial supplier and stored at -80° C. prior to use. Microsomes (final protein concentration 0.5 mg/mL), 0.1 M phosphate buffer pH 7.4 and test compound (final substrate concentration 1 µM; final DMSO concentration 0.25%) were pre-incubated at 37° C. prior to the addition of NADPH (final concentration 1 mM) to initiate the reaction. The final incubation volume was 50 µL. A control incubation was included for each compound tested where 0.1 M phosphate buffer pH 7.4 was added instead of NADPH (minus NADPH). Two control compounds were included with each species. All incubations were performed singularly for each test compound. Each compound was incubated for 0, 5, 15, 30 and 45 min. The control (minus NADPH) was incubated for 45 min only. The reactions were stopped by transferring incubate into acetonitrile at the appropriate time points, in a 1:3 ratio. The termination plates are centrifuged at 3,000 rpm for 20 min at 4° C. to precipitate the protein. Following protein precipitation, the sample supernatants were combined in cassettes of up to 4 compounds, internal standard added, and samples analysed by LC-MS/MS. From a plot of In peak area ratio (compound peak area/internal standard peak area) against time, the gradient of the line was determined. Subsequently, half-life (t½) and intrinsic clearance (CLint) were calculated.

Data set [2] deals with RSV A2. Description: RSV plaque reduction assay. Format: cell-based, RSV (RSV A2 ECACC, 0709161v). The following applies: Hep-G2 cells, RSV A2, 2 days, mean of at least two experiments. The method, boiled down:
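Hep-G2 monolayers infected with 100 PFU/well RSV A2 premixed with eight compound dilutions, 2 h at 37° C, then overlaid with 0.8% CMC/2% FBS DMEM containing compound for 2 days. Plaques immunostained (HRP/TrueBlue) and counted; EC50 from % infection versus virus control, mean of at least two experiments.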
(In general: In a plaque reduction assay, fewer plaques than in the control indicate reduced infectivity or spread.)

The nature of data set [3]: Liver microsomal stability (human). Format: in vitro ADME. The following applies: 1 µM compound; for half-life at 1 µM: pooled liver microsomes, pH 7.4, 0.5 mg/mL protein, read-out: Liver Microsomal Stability t½. Here is the method:
as §1, §2
(In general: Liver microsomes are vesicles of endoplasmic reticulum, rich in cytochrome P450 enzymes.)

Data set [4] can be described thus: Cell cytotoxicity CC50. Format: cell-based. The following applies: human; mean of at least two experiments. An excerpt:
(§3) Plates were scanned and analysed using the Immunospot S6 Macro analyser, which is equipped with BioSpot analysis software for counting immunostained plaques (virospots). Plaque counts were used to calculate % infection relative to the mean of the plaque count in the virus control wells for RSV. […] Plaque EC50 and cell toxicity CC50 values are a mean of at least two experiments and figures are rounded to whole units.

A short description of data set [5]: Liver microsomal stability (dog). The following applies: 1 µM compound; for half-life at 1 µM: pooled liver microsomes, pH 7.4, 0.5 mg/mL protein, read-out: Liver Microsomal Stability t½. Format: in vitro ADME. Here is the method:
as §1, §2

Data set [6] concerns Hep-G2 cells. Briefly: Cell cytotoxicity CC50. Format: cell-based. The following applies: mean of at least two experiments.
From the text: as §3

Data set [7] in a line: In vivo pharmacokinetics in rats. The arrangement: species or system rats [Sprague Dawley (SD)]. Particulars: male SD rats. Here is the method:
The pharmacokinetics of compounds were studied in vivo in rats at doses of 1 mg/kg (IV) and 10 mg/kg (PO).
Male rats [Sprague Dawley (SD)] surgically prepared with a jugular vein cannula were treated with experimental compounds via intravenous administration (IV; n=3; 1 mg/kg) or oral administration (PO; n=3; 10 mg/kg). Compounds were formulated as a solution in 40:60 dimethylacetamide:saline (IV administration) and a solution of 10% DMSO, 10% cremaphor in water (80%) (PO administration). […] Serial blood samples were collected via the cannula at 0.02, 0.08, 0.25, 0.5, 1, 2, 4, 6, 8 and 24 h post IV dosing of compound, and at 0.08, 0.25, 0.5, 1, 2, 4, 6, 8 and 24 h post oral dosing of compound, and plasma was prepared by centrifugation and stored immediately at -80° C. Samples were subsequently thawed, prepared for analysis by protein precipitation with acetonitrile, and analysed by tandem LCMS using electrospray ionisation using a matrix-matched calibration curve. PK parameters were calculated from the resulting data.

Data set [8] relates to RSV. The following applies: Antimicrobial Agents and Chemotherapy, September 2007, 3346-3353; cited from earlier work.
Setting [9] is: human respiratory syncytial virus, HepG2, 48 h.

On to `O=C(N[C@H]1N=C(c2ccccc2)c2cccc(F)c2NC1=O)c1c(-c2ccccc2F)nn2c1OCCCC2` [Example 2, N-[(3S)-9-Fluoro-2-oxo-5-phenyl-1,3-dihydro-1,4-benzodiazepin-3-yl]-2-(2-fluorophenyl)-5,6,7,8-tetrahydropyrazolo[5,1-b][1,3]oxazepine-3-carboxamide], for which the half-life at 1 µM in data set [1] turned out to be 0.853 h; in data set [3] it was 6.05 h; in data set [5], 5.42 h. The compound also had a pEC50 in data set [2] (setting [9]) of 7.48. For the same compound, the CC50 in data set [4] was over 25000 nM.
Take `O=C(N[C@H]1N=C(c2ccccc2)c2cccc(F)c2NC1=O)c1c(-c2ccccc2F)nn2c1OCC(F)(F)CC2` [Example 28, 6,6-Difluoro-N-[(3S)-9-fluoro-2-oxo-5-phenyl-2,3-dihydro-1H-1,4-benzodiazepin-3-yl]-2-(2-fluorophenyl)-5H,6H,7H,8H-pyrazolo[3,2-b][1,3]oxazepine-3-carboxamide]: the half-life at 1 µM in data set [1] was found to be 3.25 h; in data set [3] it was 11.2 h; in data set [5], 31 h. In data set [2] (setting [9]), the pEC50 was 7.35. Moreover, the CC50 in data set [4] is over 25000 nM.
For the compound “2-(2,4-Difluorophenyl)-5-methyl-N-[(3S)-2-oxo-5-phenyl-1,3-dihydro-1,4-benzodiazepin-3-yl]-5,6,7,8-tetrahydropyrazolo[5,1-b][1,3]oxazepine-3-carboxamide [Example 16]”, the pEC50 in data set [2] is 7.19. In addition, the CC50 in data set [6] was over 25000 nM.
As to `CCC1CCCn2nc(-c3ccc(C)nc3)c(C(=O)N[C@H]3N=C(c4ccccc4)c4ccccc4NC3=O)c2O1` (single isomer, unassigned) [Example 26-2, (5S*)-5-ethyl-2-(6-methylpyridin-3-yl)-N-[(3S)-2-oxo-5-phenyl-2,3-dihydro-1H-1,4-benzodiazepin-3-yl]-5H,6H,7H,8H-pyrazolo[3,2-b][1,3]oxazepine-3-carboxamide], the pEC50 in data set [2] is 6.48. The CC50 in data set [6] is over 25000 nM.
Regarding `CCC1CCCn2nc(-c3ccccc3F)c(C(=O)N[C@H]3N=C(c4ccccc4)c4cccc(F)c4NC3=O)c2O1` (single isomer, unassigned) [Example 25-2, (5S*)-5-ethyl-2-(2-fluorophenyl)-N-[(3S)-9-fluoro-2-oxo-5-phenyl-1,3-dihydro-1,4-benzodiazepin-3-yl]-5,6,7,8-tetrahydropyrazolo[5,1-b][1,3]oxazepine-3-carboxamide], the pEC50 in data set [2] was 7.08. Also, the CC50 in data set [6] was over 25000 nM.
As to “N-((S)-9-fluoro-2-oxo-5-phenyl-2,3-dihydro-1H-benzo[b]azepin-3-yl)-2-(2-fluorophenyl)-5,6,7,8-tetrahydro-5,8-methanopyrazolo[5,1-b][1,3]oxazepine-3-carboxamide [Example 19]”, the “Liver Microsomal Stability t½” value in data set [1] (rat liver microsomes, 0.5 mg/mL protein) was found to be 2.13 h; in data set [3] (human liver microsomes, 0.5 mg/mL protein), 1.23 h; in data set [5] (dog liver microsomes, 0.5 mg/mL protein) it was 1.92 h. In data set [2], the pEC50 is 7.43. Besides, the “C 8 h” value in data set [7] (8 h, route not stated in the row) is 110 ng/mL. Further, in data set [7] (IV 1 mg/kg), the “IV t½” value is 2.30 h. For the same compound, the “PO AUClast” value in data set [7] (PO 10 mg/kg) was 4487 ng·h/mL. Also, the “PO t½” value in data set [7] (PO 10 mg/kg) amounted to 2.9 h. This compound also had a F in data set [7] (PO 10 mg/kg vs IV 1 mg/kg) of 39.3%. In addition, in data set [7] (route not stated in the row, study IV 1 mg/kg, PO 10 mg/kg), the Cmax was found to be 949 ng/mL. The same compound showed a Cl in data set [7] (study IV 1 mg/kg, PO 10 mg/kg) of 16.1 mL/min/kg. Besides, the Vd in data set [7] (study IV 1 mg/kg, PO 10 mg/kg) worked out at 2.8 L/kg. In addition, the 50% cytotoxic concentration (CC50) in data set [6] is over 25000 nM.
On to `CC1CCCn2nc(-c3ccc(F)cc3F)c(C(=O)N[C@H]3N=C(c4ccccc4)c4ccccc4NC3=O)c2O1` (single isomer, unassigned) [Example 16-2, (5S*)-2-(2,4-difluorophenyl)-5-methyl-N-[(3S)-2-oxo-5-phenyl-1,3-dihydro-1,4-benzodiazepin-3-yl]-5,6,7,8-tetrahydropyrazolo[5,1-b][1,3]oxazepine-3-carboxamide], for which the pEC50 in data set [2] was 7.41. The same compound came in with a CC50 in data set [6] of over 25000 nM.
Take `CC1CCCOc2c(C(=O)NC3N=C(c4ccccc4)c4cccc(F)c4NC3=O)c(-c3ccccc3F)nn21` (single isomer, unassigned) [Example 15-2, (8S*)-N-(9-fluoro-2-oxo-5-phenyl-1,3-dihydro-1,4-benzodiazepin-3-yl)-2-(2-fluorophenyl)-8-methyl-5,6,7,8-tetrahydropyrazolo[5,1-b][1,3]oxazepine-3-carboxamide]: in data set [2], the pEC50 was 7.43. The compound also displayed a CC50 in data set [6] of over 25000 nM.
For `CCC1CCCn2nc(-c3ccccc3F)c(C(=O)N[C@H]3N=C(c4ccccc4)c4ccccc4NC3=O)c2O1` (single isomer, unassigned) [Example 24-2, (5S*)-5-ethyl-2-(2-fluorophenyl)-N-[(3S)-2-oxo-5-phenyl-2,3-dihydro-1H-1,4-benzodiazepin-3-yl]-5H,6H,7H,8H-pyrazolo[3,2-b][1,3]oxazepine-3-carboxamide] the same measures were 7.05 and over 25000 nM.
In the case of `O=C(Nc1ccccc1F)N[C@H]1N=C(c2ccccc2)c2ccccc2NC1=O` [RSV604], the anti-RSV activity result in data set [8] is recorded as “sub-micromolar”.
In turn, `CC(C)Nc1ccc(-c2nn3c(c2C(=O)N[C@H]2N=C(c4ccccc4)c4cccc(F)c4NC2=O)OC(C)CCC3)c(F)n1` (single isomer, unassigned) [Example 13-2, (5S*)-N-[(3S)-9-fluoro-2-oxo-5-phenyl-1,3-dihydro-1,4-benzodiazepin-3-yl]-2-[2-fluoro-6-(propan-2-ylamino)pyridin-3-yl]-5-methyl-5,6,7,8-tetrahydropyrazolo[5,1-b][1,3]oxazepine-3-carboxamide] had a pEC50 in data set [2] of 7.64. Moreover, in data set [6], the CC50 was over 25000 nM.
In data set [2], `CC(C)Nc1ccc(-c2nn3c(c2C(=O)N[C@H]2N=C(c4ccccc4)c4ccccc4NC2=O)OC(C)CCC3)c(F)n1` (single isomer, unassigned) [Example 12-2, (5S*)-2-[2-fluoro-6-(propan-2-ylamino)pyridin-3-yl]-5-methyl-N-[(3S)-2-oxo-5-phenyl-1,3-dihydro-1,4-benzodiazepin-3-yl]-5,6,7,8-tetrahydropyrazolo[5,1-b][1,3]oxazepine-3-carboxamide] had a pEC50 of 7.48. Moreover, the CC50 in data set [6] is over 25000 nM.

By pEC50 is commonly meant the negative decadic logarithm of the EC50, by convention in mol/L. Low values mean a large EC50, high ones a small EC50. The CC50 is the concentration giving 50% cytotoxicity. As usually defined, the Cmax is the highest concentration seen after dosing.
